Reference: patent US11117902B2, “Selective estrogen receptor degraders” (Eli Lilly and Company, priority 2018, dated 2021)

Columns and labels:
ERα receptor = ERα receptor (Homo sapiens (Human), UniProt P03372); test: PRα induction assay in MCF7 cells (ERα agonism); type: cell-based; conditions: MCF7 breast cancer cells
Protocol: PRα Induction Assay in MCF7 Cells
The purpose of the following PRα induction assay is to determine whether a test compound has agonistic activity against ERα receptor (an agonist would be expected to activate the receptor).
Culture MCF7 (purchased from ATCC HTB-22) in DMEM media supplemented with 10% FBS, 0.01 mg/mL human insulin 1 and 1% penicillin/streptomycin antibiotics and plate the cells (prior to becoming 70% confluent) in 384-well flat-bottom plates at a density of 4,000 cells per well in 20 μL volume in DMEM phenol red free media containing 10% FBS (charcoal stripped). Incubate the cells overnight in a cell culture incubator (5% CO2, 95% relative humidity at 37° C.) and allow the cells to attach to the plate. The following day, dose the cells with test compound. Use an Echo 555 acoustic dispenser to prepare compound serial dilutions (1:3) in a range from 6 μM to 0.0003 μM. Dose the cells with the addition of the test compound (5 μL) from the serial dilution plate to the cell plate producing a final DMSO concentration of 0.2% with a final concentration of the test compound dose range between 2 and 0.0001 μM. For the maximum point use media containing 0.2% of DMSO and for the minimum point, use fulvestrant diluted at […] final concentrations in the growth media containing 0.2% DMSO. After dosing with the test compound, incubate the cell plates at 37° C. and 5% CO2 for 24 hours. Fix the cells by adding 14% para-formaldehyde (10 μL) for 30 minutes at room temperature. Wash cells once with PBS (20 μL) and incubate with PBS (20 μL) containing 0.5% (v/v) TWEEN® 20 for 1 hour. […]
The following day, wash cells with PBS 0.05% TWEEN® 20 (2×20 μL) and incubate with secondary antibody (20 μL/well) (1:1000 dilution, Goat anti-rabbit IgM ALEXA FLUOR™ 488) in PBS 1% BSA for 105 minutes at room temperature. […] Scan plates with ACUMEN EXPLORER™ [Laser-scanning fluorescence microplate cytometer manufactured by TTP LABTECH LTD] to measure PRα. […]

[1] = Rat oral bioavailability assay; type: in vivo; conditions: plasma, Sprague-Dawley rats, IV 1 mg/kg, PO 10 mg/kg, read-out: oral bioavailability (% F)
Protocol: Rat Oral Bioavailability Assay
Administer the test compound to Sprague-Dawley rats IV at 1 mg/kg (using vehicles of either: 20% CAPTISOL® in 25 mM sodium phosphate buffer, pH2 quantum satis; or 25% DMA, 15% EtOH, 10% propylene glycol, 25% 2-pyrrolidone, and 25% purified water) and PO at 10 mg/kg (using a vehicle of 1% hydroxyethyl cellulose, 0.25% polysorbate 80, 0.05% Antifoam 1510-US, and purified water quantum satis). Collect serial blood samples at 0.08, 0.25, 0.5, 1, 2, 4, 8, and 12 hours post dose for IV bolus and at 0.25, 0.5, 1, 2, 4, 8, and 12 hours post dose after oral administration. After treatment with an EDTA […], obtain plasma by centrifugation and store at −70° C. until analysis by LC-MS/MS. Determine the test compound concentration in plasma and upload into the Watson LIMS™ system where noncompartmental analysis is used to calculate Area Under the Curve (AUC) for both IV and PO arms. Calculate oral bioavailability (% F) via the following equation, % F=(AUCPO×DoseIV)/(AUCIV×DosePO)×100.

ERα receptor, sequence (P03372 whole entry): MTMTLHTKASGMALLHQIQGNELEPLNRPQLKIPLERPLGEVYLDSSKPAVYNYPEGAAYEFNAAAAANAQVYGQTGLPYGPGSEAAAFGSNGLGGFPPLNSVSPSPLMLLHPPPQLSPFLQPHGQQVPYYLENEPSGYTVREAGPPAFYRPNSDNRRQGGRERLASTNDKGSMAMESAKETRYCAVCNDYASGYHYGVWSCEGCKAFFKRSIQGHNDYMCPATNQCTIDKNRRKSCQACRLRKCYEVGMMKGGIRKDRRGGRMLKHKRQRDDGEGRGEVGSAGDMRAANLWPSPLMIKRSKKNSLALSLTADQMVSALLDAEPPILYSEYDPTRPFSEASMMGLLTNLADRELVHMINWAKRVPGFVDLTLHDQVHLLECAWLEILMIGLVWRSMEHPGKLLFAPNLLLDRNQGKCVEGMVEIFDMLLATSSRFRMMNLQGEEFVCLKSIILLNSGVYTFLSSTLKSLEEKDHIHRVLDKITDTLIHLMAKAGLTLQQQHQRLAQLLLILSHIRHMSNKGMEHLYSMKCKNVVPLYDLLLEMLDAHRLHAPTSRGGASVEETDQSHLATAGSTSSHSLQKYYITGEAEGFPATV

agonistic activity (PRα induction) (ERα receptor) | bioavailability [1] | SMILES
no significant agonistic activity | – | Oc1ccc2c3c(cnc2c1)-c1ccc(C(F)(F)F)cc1OC3c1ccc(OCCN2CC(CF)C2)cc1 (single isomer, unassigned; isomer 1) [Example 1A, 5-(4-{2-[3-(Fluoromethyl)azetidin-1-yl]ethoxy}phenyl)-8-(trifluoromethyl)-5H-[1]benzopyrano[4,3-c]quinolin-2-ol, Isomer 1]
no significant agonistic activity | – | Oc1ccc2c3c(cnc2c1)-c1ccc(C(F)(F)F)cc1OC3c1ccc(OCCN2CC(CF)C2)cc1 (racemic) [Example 1, Racemic 5-(4-{2-[3-(Fluoromethyl)azetidin-1-yl]ethoxy}phenyl)-8-(trifluoromethyl)-5H-[1]benzopyrano[4,3-c]quinolin-2-ol]
no significant agonistic activity | ~50% | Oc1ccc2c3c(cnc2c1)-c1ccc(C(F)(F)F)cc1OC3c1ccc(OCCN2CC(CF)C2)cc1 (single isomer, unassigned; isomer 2) [Example 1B, 5-(4-{2-[3-(Fluoromethyl)azetidin-1-yl]ethoxy}phenyl)-8-(trifluoromethyl)-5H-[1]benzopyrano[4,3-c]quinolin-2-ol, Isomer 2]
